pKi: −log10 of the molar value.

Holding throughout (format): biochemical
One test has as its target Wild-type cruzipain (Trypanosoma cruzi, UniProt P25779). Briefly: Trypanosoma cruzi cruzipain peptidase activity assay (Ki). The conditions noted are these: read-out: Ki, inhibitors of cruzain and cruzipains. In outline: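 Native cruzipain from T. cruzi Dm28 epimastigotes, 2.5 nM, in 100 mM sodium phosphate pH 6.75 with 1 mM EDTA and 10 mM L-cysteine, 25 °C, DMSO <1%. Rates taken from continuous fluorogenic substrate read; Ki by regression assuming reversible pure-competitive inhibition.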

A further test concerns the target T1, human cathepsin L (Homo sapiens, UniProt P07711).
T1 construct: purchased CN Biosciences
Briefly: Cathepsin L peptidase activity assay (Ki). The conditions noted are these: read-out: Ki, inhibitors of cathepsin L. The procedure: Unless otherwise stated, all general chemicals and biochemicals were purchased from either the Sigma Chemical Company, Poole, Dorset, U.K or from Fisher Scientific UK, Loughborough, Leicestershire, U.K. Absorbance assays were carried out in flat-bottomed 96-well plates (Spectra; Greiner Bio-One Ltd., Stonehouse, Gloucestershire, U.K.) using a SpectraMax PLUS384 plate reader (Molecular Devices, Crawley, U.K.). Fluorescence high throughput assays were carried out in either 384-well microtitre plates (Corning Costar 3705 plates, Fisher Scientific) or 96-well ‘U’ bottomed Microfluor W1 microtitre plates (Thermo Labsystems, Ashford, Middlesex, U.K.). Fluorescence assays were monitored using a SpectraMax Gemini fluorescence plate reader (Molecular Devices). For substrates employing either a 7-amino-4-methylcoumarin (AMC) or a 7-amino-4-trifluoromethylcoumarin (AFC) fluorophore, assays were monitored at an excitation wavelength of 365 nm and an emission wavelength of 450 nm and the fluorescence plate reader calibrated with AMC. For substrates employing a 3-amino-benzoyl (Abz) fluorophore, assays were monitored at an excitation wavelength of 310 nm and an emission wavelength of 445 nm; the fluorescence plate reader calibrated with 3-amino-benzamide (Fluka). Unless otherwise indicated, all the peptidase substrates were purchased from Bachem UK, St Helens, Merseyside, UK. Substrates utilizing fluorescence resonance energy transfer methodology (i.e. FRET-based substrates) were synthesized at Incenta Limited using published methods (Atherton & Sheppard, Solid Phase Peptide Synthesis, IRL Press, Oxford, U.K, 1989) and employed Abz (2-aminobenzoyl) as the fluorescence donor and 3-nitro-tyrosine [Tyr(NO2)] as the fluorescence quencher (Meldal, M. and Breddam, K., Anal. Biochem, 195, 141-147, 1991). Hydroxyethylpiperazine ethanesulfonate (HEPES), tris-hydroxylmethyl aminomethane (tris) base, bis-tris-propane and all the biological detergents (e.g. CHAPS, zwittergents, etc.) were purchased from CN Biosciences UK, Beeston, Nottinghamshire, U.K. Glycerol was purchased from Amersham Pharmacia Biotech, Little Chalfont, Buckinghamshire, U.K. Stock solutions of substrate or inhibitor were made up to 10 mM in 100% dimethylsulfoxide (DMSO) (Rathburns, Glasgow, U.K.) and diluted as appropriately required. In all cases the DMSO concentration in the assays was maintained at less than 1% (vol./vol.).
Assay protocols were based on literature precedent (Table 4; Barrett, A. J., Rawlings, N. D. and Woessner, J. F., 1998, Handbook of Proteolytic Enzymes, Academic Press, London and references therein) and modified as required to suit local assay protocols. Enzyme was added as required to initiate the reaction and the activity, as judged by the change in fluorescence upon conversion of substrate to product, was monitored over time. All assays were carried out at 25±1° C.
Bovine cathepsin S, human cathepsin L, human cathepsin H and human cathepsin B were obtained from CN Biosciences. Recombinant human cathepsin S, human cathepsin K and human cathepsin X were obtained from Dr. Boris Turk (Josef Stefan Institute, Ljubljana, Slovenia). Unless otherwise stated, all peptidase activity assays were carried out in 10 mM bis-tris-propane (BTP), pH 6.5 containing 1 mM EDTA, 5 mM 2-mercaptoethanol and 1 mM CaCl2. Human cathepsin H activity assays were carried out in 10 mM BTP pH 6.5, 142 mM NaCl2, 1 mM CaCl2, 1 mM EDTA, 1 mM DTT, 0.035 mM Zwittergent 3-16. Human cathepsin K assays were carried out in 100 mM sodium acetate; pH 5.5 containing 20 mM L-cysteine and 1 mM EDTA (Bossard, M. J., et. al., J. Biol. Chem., 21, 12517-12524, 1996). Human cathepsin X assays were carried out in 100 mM sodium acetate; pH 5.5 containing 20 mM L-cysteine; 0.05% (w/v) Brij 35 and 1 mM EDTA (Santamaria, I., et. al., J. Biol. Chem., 273, 16816-16823, 1998; Klemencic, J, et al., Eur. J. Biochem., 267, 5404-5412, 2000). […]

The target of another test is T2, CPB2.8ΔCTE (Leishmania mexicana, UniProt P36400).
T2 construct: Wild-type recombinant CPB without the C-terminal extention (i.e. CPB2.8ΔCTE); Dr. Jeremy Mottram (Wellcome Centre for Molecular Parasitology, University of Glasgow)
T2 sequence (P36400 126-343, stated change not applied): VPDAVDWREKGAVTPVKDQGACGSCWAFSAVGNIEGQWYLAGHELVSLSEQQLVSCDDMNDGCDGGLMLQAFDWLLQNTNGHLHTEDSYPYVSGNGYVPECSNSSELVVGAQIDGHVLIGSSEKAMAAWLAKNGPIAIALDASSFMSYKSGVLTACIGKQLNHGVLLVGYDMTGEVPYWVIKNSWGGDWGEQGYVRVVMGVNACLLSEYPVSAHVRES
Briefly: Leishmania mexicana cysteine protease B (CPB) peptidase activity assay (Ki). The settings on record: Ki, inhibitors of Leismania mexicana CPB protease. Summed up: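 Recombinant CPB2.8ΔCTE (0.25 nM) was assayed in 100 mM sodium acetate pH 5.5 with 1 mM EDTA, 200 mM NaCl and 10 mM DTT at 25 °C, DMSO <1%, enzyme added to start. Rates were taken from continuous fluorescence slopes; apparent Ki was fitted assuming reversible, pure-competitive inhibition.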

Wild-type cruzipain, sequence (P25779 whole entry): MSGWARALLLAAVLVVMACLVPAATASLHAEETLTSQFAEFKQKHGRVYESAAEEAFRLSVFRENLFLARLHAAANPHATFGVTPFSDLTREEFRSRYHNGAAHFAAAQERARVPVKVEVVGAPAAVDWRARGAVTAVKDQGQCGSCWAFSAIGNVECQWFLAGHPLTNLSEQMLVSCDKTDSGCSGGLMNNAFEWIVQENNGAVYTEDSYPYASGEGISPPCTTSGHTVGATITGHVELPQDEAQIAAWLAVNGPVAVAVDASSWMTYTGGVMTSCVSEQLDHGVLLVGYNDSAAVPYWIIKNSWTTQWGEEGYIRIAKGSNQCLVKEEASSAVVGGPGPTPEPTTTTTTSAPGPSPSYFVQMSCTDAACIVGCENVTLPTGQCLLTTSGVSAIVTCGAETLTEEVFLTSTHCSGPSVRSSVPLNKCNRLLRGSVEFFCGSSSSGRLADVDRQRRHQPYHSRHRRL
T1 sequence (P07711 114-333): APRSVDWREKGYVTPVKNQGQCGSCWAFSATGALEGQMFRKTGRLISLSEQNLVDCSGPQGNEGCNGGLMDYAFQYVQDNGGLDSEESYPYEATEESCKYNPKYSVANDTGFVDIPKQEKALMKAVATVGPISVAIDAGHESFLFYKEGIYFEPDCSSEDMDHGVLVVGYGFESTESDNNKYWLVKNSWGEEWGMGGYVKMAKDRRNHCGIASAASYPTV

`CC(=O)N1CCC[C@H]1C(=O)N1CC(=O)[C@@H]2[C@H]1CCN2C(=O)[C@H](CC(C)C)NC(=O)c1ccc(N(C)C)cc1` [Example 216, (3aR,6aS)-N-{(1S)-1-[4-((2S)-1-Acetyl-pyrrolidine-2-carbonyl)-6-oxo-hexahydro-pyrrolo[3,2-b]pyrrole-1-carbonyl]-3-methyl-butyl}-4-dimethylamino-benzamide]: the pKi on Wild-type cruzipain, on human cathepsin L and at CPB2.8ΔCTE was above 5.30 each time.

For `CC(C)C[C@H](NC(=O)c1cccc(CN)c1)C(=O)N1CC[C@@H]2[C@H]1C(=O)CN2C(=O)Cc1cccc(F)c1` [Example 179, (3aR,6aS)-3-Aminomethyl-N-((1S)-1-{4-[2-(3-fluoro-phenyl)-acetyl]-6-oxo-hexahydro-pyrrolo[3,2-b]pyrrole-1-carbonyl}-3-methyl-butyl)-benzamide], the pKi at human cathepsin L and at CPB2.8ΔCTE was above 5.30 each time.

`CC(C)C[C@H](NC(=O)c1ccc([N+](C)(C)[O-])cc1)C(=O)N1CC[C@@H]2[C@H]1C(=O)CN2C(=O)c1ccccc1` [Example 117, (3aR,6aS)-N-[(1S)-1-(4-Benzoyl-6-oxo-hexahydro-pyrrolo[3,2-b]pyrrole-1-carbonyl)-3-methyl-butyl]-4-(N-oxy-dimethylamino)-benzamide]: the pKi on Wild-type cruzipain, at human cathepsin L and at CPB2.8ΔCTE was above 5.30 in each case.

`CC(C)C[C@H](NC(=O)c1ccc(N(C)C)cc1)C(=O)N1CC[C@@H]2[C@H]1C(=O)CN2C(=O)c1cccc(F)c1` [Example 63, (3aR,6aS)-4-Dimethylamino-N-{(1S)-1-[4-(3-fluoro-benzoyl)-6-oxo-hexahydro-pyrrolo[3,2-b]pyrrole-1-carbonyl]-3-methyl-butyl}-benzamide]: the pKi on Wild-type cruzipain, on human cathepsin L and on CPB2.8ΔCTE was above 5.30 each time.

Regarding `CC(C)C[C@H](NC(=O)c1cccc(CN)c1)C(=O)N1CC[C@@H]2[C@H]1C(=O)CN2C(=O)Cc1ccccc1F` [Example 178, (3aR,6aS)-3-Aminomethyl-N-((1S)-1-{4-[2-(2-fluoro-phenyl)-acetyl]-6-oxo-hexahydro-pyrrolo[3,2-b]pyrrole-1-carbonyl}-3-methyl-butyl)-benzamide], the pKi on human cathepsin L and on CPB2.8ΔCTE was above 5.30 throughout.

In the case of `CC(C)C[C@H](NC(=O)c1cccc(CN)c1)C(=O)N1CC[C@@H]2[C@H]1C(=O)CN2C(=O)[C@@H](N)c1ccccc1` [Example 182, (3aR,6aS)-3-Aminomethyl-N-{(1S)-1-[4-((2S)-2-amino-2-phenyl-acetyl)-6-oxo-hexahydro-pyrrolo[3,2-b]pyrrole-1-carbonyl)-3-methyl-butyl}-benzamide], the pKi at human cathepsin L and on CPB2.8ΔCTE was above 5.30 in each case.

With `CC(C)C[C@H](NC(=O)c1cccc(CN)c1)C(=O)N1CC[C@@H]2[C@H]1C(=O)CN2C(=O)[C@@H](N)CC(C)C` [Example 246, (3aR,6aS)-3-Aminomethyl-N-{(1S)-1-[4-((2S)-2-amino-4-methyl-pentanoyl)-6-oxo-hexahydro-pyrrolo[3,2-b]pyrrole-1-carbonyl)-3-methyl-butyl}-benzamide], the pKi on Wild-type cruzipain, at human cathepsin L and at CPB2.8ΔCTE was above 5.30 throughout.

Turning to `CC(C)C[C@H](NC(=O)c1cccc(CN)c1)C(=O)N1CC[C@@H]2[C@H]1C(=O)CN2C(=O)Cc1ccccc1` [Example 118, (3aR,6aS)-3-Aminomethyl-N-[(1S)-3-methyl-1-(6-oxo-4-phenylacetyl-hexahydro-pyrrolo[3,2-b]pyrrole-1-carbonyl)-butyl]-benzamide], the pKi at Wild-type cruzipain, at human cathepsin L and at CPB2.8ΔCTE was above 5.30 in each case.

For `CC[C@H](NC(C)=O)C(=O)N1CC(=O)[C@@H]2[C@H]1CCN2C(=O)[C@H](CC(C)C)NC(=O)c1ccc(N(C)C)cc1` [Example 204, (3aR,6aS)-N-{(1S)-1-[4-((2S)-2-Acetylamino-butyryl)-6-oxo-hexahydro-pyrrolo[3,2-b]pyrrole-1-carbonyl]-3-methyl-butyl}-4-dimethylamino-benzamide], the pKi at Wild-type cruzipain, on human cathepsin L and on CPB2.8ΔCTE was above 5.30 throughout.

For `CC(=O)N[C@@H](CC(C)C)C(=O)N1CC(=O)[C@@H]2[C@H]1CCN2C(=O)[C@H](CC1CCCCC1)NC(=O)c1ccco1` [Example 295, (3aR,6aS)-Furan-2-carboxylic acid {(1S)-2-[4-((2S)-2-acetylamino-4-methyl-pentanoyl)-6-oxo-hexahydro-pyrrolo[3,2-b]pyrrole-1-yl]-1-cyclohexylmethyl-2-oxo-ethyl}-amide], the pKi on Wild-type cruzipain, on human cathepsin L and at CPB2.8ΔCTE was above 5.30 each time.

Take `CC(C)C[C@H](NC(=O)c1cccc(CN)c1)C(=O)N1CC[C@@H]2[C@H]1C(=O)CN2C(=O)Cc1ccc(F)cc1` [Example 180, (3aR,6aS)-3-Aminomethyl-N-((1S)-1-{4-[2-(4-fluoro-phenyl)-acetyl]-6-oxo-hexahydro-pyrrolo[3,2-b]pyrrole-1-carbonyl}-3-methyl-butyl)-benzamide]: the pKi on Wild-type cruzipain, on human cathepsin L and at CPB2.8ΔCTE was above 5.30 each time.

As for `CC(C)C[C@H](NC(=O)c1cccc(CN)c1)C(=O)N1CC[C@@H]2[C@H]1C(=O)CN2C(=O)[C@H](N)c1ccccc1` [Example 181, (3aR,6aS)-3-Aminomethyl-N-{(1S)-1-[4-((2R)-2-amino-2-phenyl-acetyl)-6-oxo-hexahydro-pyrrolo[3,2-b]pyrrole-1-carbonyl]-3-methyl-butyl}-benzamide], the pKi on human cathepsin L and on CPB2.8ΔCTE was above 5.30 each time.

For the compound `CC(C)C[C@H](NC(=O)c1ccc2ccccc2n1)C(=O)N1CC[C@@H]2[C@H]1C(=O)CN2C(=O)c1cccnc1` [Example 18, (3aR,6aS)-Quinoline-2-carboxylic acid {(1S)-3-methyl-1-[6-oxo-4-(pyridine-3-carbonyl)-hexahydro-pyrrolo[3,2-b]pyrrole-1-carbonyl]-butyl}-amide], the pKi on Wild-type cruzipain and on human cathepsin L was above 5.30 throughout.

As for `NCc1cccc(C(=O)N[C@@H](CSCc2ccccc2)C(=O)N2CC[C@@H]3[C@H]2C(=O)CN3C(=O)c2ccccc2)c1` [Example 278, (3aR,6aS)-3-Aminomethyl-N-[(1R)-2-(4-benzoyl-6-oxo-hexahydro-pyrrolo[3,2-b]pyrrole-1-yl)-1-benzylsulfanylmethyl-2-oxo-ethyl]-benzamide], the pKi at human cathepsin L and at CPB2.8ΔCTE was above 5.30 in each case.

The values above are taken from patent US20060100431A1, “Biologically active compounds” (Amura Therapeutics Limited, priority 2002, published 2006).
